What is called IC50 is the point on the concentration scale where inhibition reaches its midpoint.

Drawing on US9085576B2 (AMGEN INC., priority 2013, dated 2015), this text covers IC50 for 23 molecules.

In assay [1] the target is Beta Secretase enzyme (BACE) (Homo sapiens (Human), UniProt P56817). The assay can be described thus: In vitro enzymatic BACE FRET assay. The assay is classed as biochemical. The conditions noted are these: read-out: BACE1 Enzyme assay IC50.
A further assay has as its target Cathepsin D (Cat D) (Homo sapiens (Human), UniProt P07339). The assay can be described thus: In vitro enzymatic Cathepsin D (Cat D) FRET assay. The assay is classed as biochemical. The conditions noted are these: read-out: CatD IC50.
For the next assay, the target named is BACE (Homo sapiens (Human), UniProt P56817). The assay can be described thus: In vitro BACE cell-based assay (Aβ40 in conditioned medium, sandwich ELISA). (In an ELISA, binding on a coated surface is turned into a signal by an enzyme label.)
Chain of BACE (P56817 46-501, species assumed): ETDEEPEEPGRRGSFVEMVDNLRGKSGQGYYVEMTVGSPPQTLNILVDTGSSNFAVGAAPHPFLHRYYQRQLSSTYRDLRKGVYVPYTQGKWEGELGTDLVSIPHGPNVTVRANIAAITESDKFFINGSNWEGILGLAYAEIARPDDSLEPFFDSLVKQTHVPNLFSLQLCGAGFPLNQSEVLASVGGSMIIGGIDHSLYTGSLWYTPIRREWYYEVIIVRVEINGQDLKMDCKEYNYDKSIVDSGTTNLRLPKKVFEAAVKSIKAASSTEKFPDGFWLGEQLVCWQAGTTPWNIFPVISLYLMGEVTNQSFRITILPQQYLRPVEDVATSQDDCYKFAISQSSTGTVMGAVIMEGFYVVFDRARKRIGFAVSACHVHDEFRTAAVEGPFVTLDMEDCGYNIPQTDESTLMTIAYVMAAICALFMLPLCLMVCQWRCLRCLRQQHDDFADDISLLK

Chain of Beta Secretase enzyme (BACE) (P56817 46-501): as the sequence (P56817 46-501, species assumed) above
Chain of Cathepsin D (Cat D) (P07339 65-412, species assumed): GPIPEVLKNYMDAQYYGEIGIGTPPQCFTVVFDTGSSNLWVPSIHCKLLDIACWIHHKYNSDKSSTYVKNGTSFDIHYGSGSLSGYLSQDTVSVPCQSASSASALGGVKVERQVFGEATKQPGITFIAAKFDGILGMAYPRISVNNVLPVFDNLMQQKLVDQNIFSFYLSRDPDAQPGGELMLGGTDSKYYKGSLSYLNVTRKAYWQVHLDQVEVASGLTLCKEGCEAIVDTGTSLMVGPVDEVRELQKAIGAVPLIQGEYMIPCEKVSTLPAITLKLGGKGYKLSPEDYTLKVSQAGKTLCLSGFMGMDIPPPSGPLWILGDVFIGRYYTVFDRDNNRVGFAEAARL

As to `C#CCOc1cnc(C(=O)Nc2ccc(Cl)c([C@]3(CF)N=C(N)O[C@H]4C[C@H]43)c2)cn1` [Example 280, N-(3-((1S,5R,6S)-3-amino-5-(fluoromethyl)-2-oxa-4-azabicyclo[4.1.0]hept-3-en-5-yl)-4-chlorophenyl)-5-(prop-2-yn-1-yloxy)pyrazine-2-carboxamide], the figures for the concentration for half-maximal inhibition (IC50) (in assay [1]; at Cathepsin D (Cat D); at BACE) were 4.78 µM, 1470 µM and 2.89 µM, respectively.
The matching figures for `COc1ccc(C(=O)Nc2ccc(Cl)c([C@@]3(CF)N=C(N)O[C@@H]4C[C@@H]43)c2)nc1` [Example 282, N-(3-((1R,5S,6R)-3-amino-5-(fluoromethyl)-2-oxa-4-azabicyclo[4.1.0]hept-3-en-5-yl)-4-chlorophenyl)-5-methoxypicolinamide]: 0.196 µM, 650 µM and 0.0243 µM.
As for `COc1cnc(C(=O)Nc2ccc(Cl)c([C@@]3(CF)N=C(N)O[C@@H]4C[C@@H]43)c2)c(Cl)c1` [Example 284, N-(3-((1R,5S,6R)-3-amino-5-(fluoromethyl)-2-oxa-4-azabicyclo[4.1.0]hept-3-en-5-yl)-4-chlorophenyl)-3-chloro-5-methoxypicolinamide], the 50% inhibitory concentration (IC50) in assay [1] is 0.122 µM; on Cathepsin D (Cat D), 752 µM; on BACE, 0.0149 µM.
The matching figures for `CC#CCOc1cnc(C(=O)Nc2ccc(Cl)c([C@@]3(CF)N=C(N)O[C@@H]4C[C@@H]43)c2)cn1` [Example 285, N-(3-((1R,5S,6R)-3-amino-5-(fluoromethyl)-2-oxa-4-azabicyclo[4.1.0]hept-3-en-5-yl)-4-chlorophenyl)-5-(but-2-yn-1-yloxy)pyrazine-2-carboxamide]: 0.0022 µM, 1830 µM and 0.0006 µM.
The matching figures for `NC1=N[C@@](c2cc(NC(=O)c3cccc(Cl)n3)ccc2F)(C(F)F)[C@H]2C[C@H]2O1` [Example 286, N-(3-((1R,5S,6R)-3-amino-5-(difluoromethyl)-2-oxa-4-azabicyclo[4.1.0]hept-3-en-5-yl)-4-fluorophenyl)-6-chloropicolinamide]: 1.57 µM, 725 µM and 1.12 µM.
Regarding `NC1=N[C@@](c2cc(NC(=O)c3cc(Cl)ccn3)ccc2F)(C(F)F)[C@H]2C[C@H]2O1` [Example 287, N-(3-((1R,5S,6R)-3-amino-5-(difluoromethyl)-2-oxa-4-azabicyclo[4.1.0]hept-3-en-5-yl)-4-fluorophenyl)-4-chloropicolinamide], the IC50 in assay [1] is 1.93 µM; at Cathepsin D (Cat D), 1630 µM; against BACE, 2.11 µM.
With `CC(C)c1cccnc1C(=O)Nc1ccc(F)c([C@@]2(C(F)F)N=C(N)O[C@@H]3C[C@@H]32)c1` [Example 288, N-(3-((1R,5S,6R)-3-amino-5-(difluoromethyl)-2-oxa-4-azabicyclo[4.1.0]hept-3-en-5-yl)-4-fluorophenyl)-3-isopropylpicolinamide], the results for the IC50 (in assay [1]; on Cathepsin D (Cat D); on BACE) were 3.35 µM, 1260 µM and 2.22 µM, respectively.
The matching figures for `CC(C)c1cc(Cl)cnc1C(=O)Nc1ccc(F)c([C@@]2(C(F)F)N=C(N)O[C@@H]3C[C@@H]32)c1` [Example 289, N-(3-((1R,5S,6R)-3-amino-5-(difluoromethyl)-2-oxa-4-azabicyclo[4.1.0]hept-3-en-5-yl)-4-fluorophenyl)-5-chloro-3-isopropylpicolinamide]: 0.305 µM, 700 µM and 0.116 µM.
Regarding `NC1=N[C@@](c2cc(NC(=O)c3ncc(Br)cc3C(F)F)ccc2F)(C(F)F)[C@H]2C[C@H]2O1` [Example 290, N-(3-((1R,5S,6R)-3-amino-5-(difluoromethyl)-2-oxa-4-azabicyclo[4.1.0]hept-3-en-5-yl)-4-fluorophenyl)-5-bromo-3-(difluoromethyl) picolinamide], the 50% inhibitory concentration (IC50) in assay [1] was found to be 0.0141 µM; on Cathepsin D (Cat D), 252 µM; against BACE, 0.0222 µM.
In the same order, the values of `NC1=N[C@@](c2cc(NC(=O)c3ccc(-c4ccccc4)cn3)ccc2F)(C(F)F)[C@H]2C[C@H]2O1` [Example 291, N-(3-((1R,5S,6R)-3-amino-5-(difluoromethyl)-2-oxa-4-azabicyclo[4.1.0]hept-3-en-5-yl)-4-fluorophenyl)-5-phenylpicolinamide] are 1.15 µM, 148 µM and 1.87 µM.
As to `NC1=N[C@@](c2cc(NC(=O)c3ccccn3)ccc2F)(C(F)F)[C@H]2C[C@H]2O1` [Example 292, N-(3-((1R,5S,6R)-3-amino-5-(difluoromethyl)-2-oxa-4-azabicyclo[4.1.0]hept-3-en-5-yl)-4-fluorophenyl) picolinamide], the IC50 in assay [1] came to 0.3 µM; at Cathepsin D (Cat D), 690 µM; against BACE it was 0.279 µM.
Turning to `Cc1cccnc1C(=O)Nc1ccc(F)c([C@@]2(C(F)F)N=C(N)O[C@@H]3C[C@@H]32)c1` [Example 293], the IC50 in assay [1] stood at 0.271 µM; on Cathepsin D (Cat D), 1660 µM; on BACE it was 0.601 µM.
In the same order, the values of `COc1cnc(C(=O)Nc2ccc(C)c([C@@]3(C(F)F)N=C(N)O[C@@H]4C[C@@H]43)c2)cn1` [Example 294, N-(3-((1R,5S,6R)-3-amino-5-(difluoromethyl)-2-oxa-4-azabicyclo[4.1.0]hept-3-en-5-yl)-4-methylphenyl)-5-methoxypyrazine-2-carboxamide] are 0.314 µM, 684 µM and 0.0612 µM.
The matching figures for `Cc1ccc(NC(=O)c2ccc(Cl)cn2)cc1[C@@]1(C(F)F)N=C(N)O[C@@H]2C[C@@H]21` [Example 295, N-(3-((1R,5S,6R)-3-amino-5-(difluoromethyl)-2-oxa-4-azabicyclo[4.1.0]hept-3-en-5-yl)-4-methylphenyl)-5-chloropicolinamide]: 0.0903 µM, 464 µM and 0.0129 µM.
In the same order, the values of `NC1=N[C@](c2cc(NC(=O)c3ccc(Br)cn3)ccc2F)(C(F)F)[C@@H]2C[C@@H]2O1` [Example 296, N-(3-((1S,5R,6S)-3-amino-5-(difluoromethyl)-2-oxa-4-azabicyclo[4.1.0]hept-3-en-5-yl)-4-fluorophenyl)-5-bromopicolinamide] are 4.19 µM, 1860 µM and 3.51 µM.
Turning to `COc1cnc(C(=O)Nc2cc(C)c(F)c([C@@]3(C(F)F)N=C(N)O[C@@H]4C[C@@H]43)c2)c(C)n1` [Example 300, N-(3-((1R,5S,6R)-3-amino-5-(difluoromethyl)-2-oxa-4-azabicyclo[4.1.0]hept-3-en-5-yl)-4-fluoro-5-methylphenyl)-5-methoxy-3-methylpyrazine-2-carboxamide], the IC50 in assay [1] came to 0.142 µM; at Cathepsin D (Cat D) it was 447 µM; against BACE, 0.0405 µM.
The matching figures for `COc1cnc(C(=O)Nc2ccc(Cl)c([C@@]3(CF)N=C(N)O[C@@H]4C[C@@H]43)c2)c(C)n1` [Example 301, N-(3-((1R,5S,6R)-3-amino-5-(fluoromethyl)-2-oxa-4-azabicyclo[4.1.0]hept-3-en-5-yl)-4-chlorophenyl)-5-methoxy-3-methylpyrazine-2-carboxamide]: 0.352 µM, 715 µM and 0.031 µM.
In the same order, the values of `COc1cnc(C(=O)Nc2cc(C)c(F)c([C@@]3(C(F)F)N=C(N)O[C@@H]4C[C@@H]43)c2)c(C)c1` [Example 305, N-(3-((1R,5S,6R)-3-amino-5-(difluoromethyl)-2-oxa-4-azabicyclo[4.1.0]hept-3-en-5-yl)-4-fluoro-5-methylphenyl)-5-methoxy-3-methylpicolinamide] are 0.118 µM, 288 µM and 0.0696 µM.
In the same order, the values of `COc1cc(F)cnc1C(=O)Nc1ccc(F)c([C@@]2(C(F)F)N=C(N)O[C@@H]3C[C@@H]32)c1` [Example 307, N-(3-((1R,5S,6R)-3-amino-5-(difluoromethyl)-2-oxa-4-azabicyclo[4.1.0]hept-3-en-5-yl)-4-fluorophenyl)-5-fluoro-3-methoxypicolinamide] are 0.413 µM, > 400 µM and 0.139 µM.
For `NC1=N[C@@](c2cc(NC(=O)c3ncc(Cl)cc3CF)ccc2F)(C(F)F)[C@H]2C[C@H]2O1` [Example 308, N-(3-((1R,5S,6R)-3-amino-5-(difluoromethyl)-2-oxa-4-azabicyclo[4.1.0]hept-3-en-5-yl)-4-fluorophenyl)-5-chloro-3-(fluoromethyl) picolinamide], the results for the IC50 (in assay [1]; on Cathepsin D (Cat D); at BACE) were 0.0177 µM, 186 µM and 0.0321 µM, respectively.
The matching figures for `Cc1cc(C#N)cnc1C(=O)Nc1cc(F)c(C)c([C@@]2(C(F)F)N=C(N)O[C@@H]3C[C@@H]32)c1` [Example 310, N-(3-((1R,5S,6R)-3-amino-5-(difluoromethyl)-2-oxa-4-azabicyclo[4.1.0]hept-3-en-5-yl)-5-fluoro-4-methylphenyl)-5-cyano-3-methylpicolinamide]: > 40 µM, 1770 µM and > 15.6 µM.
Regarding `Cc1cc(C#N)cnc1C(=O)Nc1cc(F)c(C)c([C@]2(C(F)F)N=C(N)O[C@H]3C[C@H]32)c1` [Example 311, N-(3-((1S,5R,6S)-3-amino-5-(difluoromethyl)-2-oxa-4-azabicyclo[4.1.0]hept-3-en-5-yl)-5-fluoro-4-methylphenyl)-5-cyano-3-methylpicolinamide], the IC50 in assay [1] came to 0.0466 µM; on Cathepsin D (Cat D), 294 µM; against BACE, 0.0174 µM.
The matching figures for `CC#Cc1ccc(C(=O)Nc2ccc(F)c([C@@]3(C(F)F)N=C(N)O[C@@H]4C[C@@H]43)c2)nc1` [Example 314, N-(3-((1R,5S,6R)-3-amino-5-(difluoromethyl)-2-oxa-4-azabicyclo[4.1.0]hept-3-en-5-yl)-4-fluorophenyl)-5-(prop-1-yn-1-yl)picolinamide]: 0.0467 µM, 421 µM and 0.0891 µM.
